Source: US10072017B2, “Compounds and methods for the treatment of cystic fibrosis” (Flatley Discovery Lab, LLC, priority 2015, dated 2018)

Molecular target: T1, CFTR (Homo sapiens, UniProt P13569, DEL508-508)
T1 construct: Primary CF airway epithelial cells were obtained from the UNC Cystic Fibrosis Tissue Procurement and Cell Culture Core; host or cells: primary CF airway epithelial cells
Test: Equivalent current assay in Primary CF airway epithelial cells (NAUC)
Type: cell-based
Conditions: 24 h, normalized to VX809 (3 μM) positive control; for Nauc @ 3 μM: 3 μM test compound; for Nauc @ 10 μM: 10 μM test compound
Method in brief: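 NAUC is the area under the curve from forskolin (10 μM) plus VX770 (1 μM) addition to CFTR-172 (20 μM) block, after benzamil (5 μM). It is corrected for vehicle and scaled to 3 μM VX809 as 1.0 and DMSO as 0.0. Cells were exposed for 24 h to compounds with VX809; medians of ≥4 replicates were fitted sigmoidally.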

T1 sequence (P13569 with tags, fused parts or gaps DEL508-508): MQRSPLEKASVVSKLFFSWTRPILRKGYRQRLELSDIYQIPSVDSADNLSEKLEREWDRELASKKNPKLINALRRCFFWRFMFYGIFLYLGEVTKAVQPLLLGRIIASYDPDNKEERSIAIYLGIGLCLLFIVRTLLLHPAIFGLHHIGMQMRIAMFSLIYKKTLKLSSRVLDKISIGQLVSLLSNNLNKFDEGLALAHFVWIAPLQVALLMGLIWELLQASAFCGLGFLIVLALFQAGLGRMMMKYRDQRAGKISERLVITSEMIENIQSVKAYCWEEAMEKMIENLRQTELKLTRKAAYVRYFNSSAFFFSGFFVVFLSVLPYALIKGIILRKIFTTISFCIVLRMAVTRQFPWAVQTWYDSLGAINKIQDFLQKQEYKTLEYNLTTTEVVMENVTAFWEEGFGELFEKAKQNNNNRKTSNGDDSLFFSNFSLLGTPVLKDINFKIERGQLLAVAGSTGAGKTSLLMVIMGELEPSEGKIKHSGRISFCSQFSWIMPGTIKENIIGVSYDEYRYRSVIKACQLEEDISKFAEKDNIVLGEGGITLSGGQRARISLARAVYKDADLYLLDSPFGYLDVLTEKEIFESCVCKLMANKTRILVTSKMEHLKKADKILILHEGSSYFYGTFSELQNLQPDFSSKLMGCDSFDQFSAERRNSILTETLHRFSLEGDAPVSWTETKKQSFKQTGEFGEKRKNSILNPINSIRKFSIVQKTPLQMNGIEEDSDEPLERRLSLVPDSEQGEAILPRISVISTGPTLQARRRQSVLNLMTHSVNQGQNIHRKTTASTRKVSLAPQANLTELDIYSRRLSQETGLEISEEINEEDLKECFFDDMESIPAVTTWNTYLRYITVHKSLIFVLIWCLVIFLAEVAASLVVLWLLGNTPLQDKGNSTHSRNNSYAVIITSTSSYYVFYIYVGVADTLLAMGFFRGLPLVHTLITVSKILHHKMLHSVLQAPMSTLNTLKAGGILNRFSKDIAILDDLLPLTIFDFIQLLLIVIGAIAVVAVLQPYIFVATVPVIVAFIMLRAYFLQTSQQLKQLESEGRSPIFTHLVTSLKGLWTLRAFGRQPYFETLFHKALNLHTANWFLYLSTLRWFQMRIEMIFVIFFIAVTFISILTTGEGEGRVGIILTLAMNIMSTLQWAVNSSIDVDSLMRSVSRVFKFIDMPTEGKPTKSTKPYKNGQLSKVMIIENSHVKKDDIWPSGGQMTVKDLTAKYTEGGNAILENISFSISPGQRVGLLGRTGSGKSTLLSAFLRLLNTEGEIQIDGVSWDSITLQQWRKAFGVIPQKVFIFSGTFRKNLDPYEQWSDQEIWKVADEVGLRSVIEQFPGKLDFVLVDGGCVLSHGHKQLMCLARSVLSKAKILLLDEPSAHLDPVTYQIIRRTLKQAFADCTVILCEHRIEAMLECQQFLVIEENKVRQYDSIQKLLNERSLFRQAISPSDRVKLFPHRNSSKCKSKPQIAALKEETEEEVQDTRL

| SMILES | Nauc @ 3 μM | Nauc @ 10 μM |
| --- | --- | --- |
| O=C1C2C3C[C@H](NS(=O)(=O)c4ccccc4)CN3C3(C(=O)Nc4c(Cl)cc(Cl)cc43)C2C(=O)N1c1cc(Cl)cc(Cl)c1 (single isomer, unassigned) [Example 58] | ++ (NAUC “++” refers to an observed NAUC 170-140% of positive control) | +++ (NAUC “+++” refers to an observed NAUC >170% of positive control) |
| O=C1C2C3CC(F)(F)CN3C3(C(=O)Nc4c(Cl)cc(Cl)cc43)C2C(=O)N1c1cc(Cl)cc(Cl)c1 (single isomer, unassigned) [Example 180] | ++ (NAUC “++” refers to an observed NAUC 170-140% of positive control) | + (NAUC “+” refers to an observed NAUC <140% of positive control) |
| O=C1C2C3C4OC4CN3C3(C(=O)Nc4c(Cl)cc(Cl)cc43)C2C(=O)N1c1cc(Cl)cc(Cl)c1 (stereo not shown) [Example 94] | ++ (NAUC “++” refers to an observed NAUC 170-140% of positive control) | +++ (NAUC “+++” refers to an observed NAUC >170% of positive control) |
| O=C1C2C3C[C@H](O)CN3C3(C(=O)Nc4c(Cl)cc(Cl)cc43)C2C(=O)N1c1cc(Cl)c(OC(F)F)c(Cl)c1 (stereo partly shown) [Example 244] | ++ (NAUC “++” refers to an observed NAUC 170-140% of positive control) | ++ (NAUC “++” refers to an observed NAUC 170-140% of positive control) |
| O=C1C2C(Cc3cccc(O)c3)NC3(C(=O)Nc4c(Cl)cc(Cl)cc43)C2C(=O)N1c1cc(Cl)cc(Cl)c1 (stereo not shown) [Example 202] | + (NAUC “+” refers to an observed NAUC <140% of positive control) | ++ (NAUC “++” refers to an observed NAUC 170-140% of positive control) |
| C[C@]1(F)CC2C3C(=O)N(c4cc(Cl)cc(Cl)c4)C(=O)C3C3(C(=O)Nc4c(Cl)cc(Cl)cc43)N2C1 (single isomer, unassigned) [Example 249] | ++ (NAUC “++” refers to an observed NAUC 170-140% of positive control) | + (NAUC “+” refers to an observed NAUC <140% of positive control) |
| N#Cc1ccccc1CC1NC2(C(=O)Nc3c(Cl)cc(Cl)cc32)C2C(=O)N(c3cc(Cl)cc(Cl)c3)C(=O)C12 (stereo not shown) [Example 186] | + (NAUC “+” refers to an observed NAUC <140% of positive control) | +++ (NAUC “+++” refers to an observed NAUC >170% of positive control) |
| O=C1C2C3CC4(CC4)CN3C3(C(=O)Nc4c(Cl)cc(Cl)cc43)C2C(=O)N1c1cc(Cl)cc(Cl)c1 (stereo not shown) [Example 174] | +++ (NAUC “+++” refers to an observed NAUC >170% of positive control) | +++ (NAUC “+++” refers to an observed NAUC >170% of positive control) |
| O=C1C2C3CC4(CC4)CN3C3(C(=O)Nc4c(Cl)cc(Cl)cc43)C2C(=O)N1c1cc(Cl)cc(Cl)c1 (single isomer, unassigned) [Example 191] | +++ (NAUC “+++” refers to an observed NAUC >170% of positive control) | +++ (NAUC “+++” refers to an observed NAUC >170% of positive control) |
| COc1cc(Cl)cc(N2C(=O)C3C4C[C@](C)(O)CN4C4(C(=O)Nc5c(Cl)cc(Cl)cc54)C3C2=O)c1 (stereo partly shown) [Example 158] | ++ (NAUC “++” refers to an observed NAUC 170-140% of positive control) | +++ (NAUC “+++” refers to an observed NAUC >170% of positive control) |
| O=C1C2C3CCCN3C3(C(=O)Nc4c(Cl)cc(Cl)cc43)C2C(=O)N1CCCBr (stereo not shown) [Example 48] | ++ (NAUC “++” refers to an observed NAUC 170-140% of positive control) | + (NAUC “+” refers to an observed NAUC <140% of positive control) |
| CC(C)C1NC2(C(=O)Nc3c(Cl)cc(Cl)cc32)C2C(=O)N(c3cc(Cl)cc(Cl)c3)C(=O)C12 (stereo not shown) [Example 17] | + (NAUC “+” refers to an observed NAUC <140% of positive control) | ++ (NAUC “++” refers to an observed NAUC 170-140% of positive control) |
| O=C1C2C3CC4(CC4)CN3C3(C(=O)Nc4c(Cl)cc(Cl)cc43)C2C(=O)N1c1cc(Cl)cc(Cl)n1 (single isomer, unassigned) [Example 218] | +++ (NAUC “+++” refers to an observed NAUC >170% of positive control) | +++ (NAUC “+++” refers to an observed NAUC >170% of positive control) |
| O=C1C2C3C[C@H](Cl)CN3C3(C(=O)Nc4c(Cl)cc(Cl)cc43)C2C(=O)N1c1cc(Cl)cc(Cl)c1 (single isomer, unassigned) [Example 88] | + (NAUC “+” refers to an observed NAUC <140% of positive control) | +++ (NAUC “+++” refers to an observed NAUC >170% of positive control) |
| O=C1C2C3CCCN3C3(C(=O)Nc4c(Cl)cc(Cl)cc43)C2C(=O)N1c1cccc(Cl)c1 (stereo not shown) [Example 11] | + (NAUC “+” refers to an observed NAUC <140% of positive control) | +++ (NAUC “+++” refers to an observed NAUC >170% of positive control) |
| COc1c(Cl)cc(N2C(=O)C3C4C[C@H](Cl)CN4C4(C(=O)Nc5c(Cl)cc(Cl)cc54)C3C2=O)cc1Cl (single isomer, unassigned) [Example 114] | +++ (NAUC “+++” refers to an observed NAUC >170% of positive control) | +++ (NAUC “+++” refers to an observed NAUC >170% of positive control) |
| N=C(N)NCCCC1NC2(C(=O)Nc3c(Cl)cc(Cl)cc32)C2C(=O)N(c3cc(Cl)cc(Cl)c3)C(=O)C12 (stereo not shown) [Example 163] | ++ (NAUC “++” refers to an observed NAUC 170-140% of positive control) | + (NAUC “+” refers to an observed NAUC <140% of positive control) |
| O=C1C2C3CCCN3C3(C(=O)Nc4c(Cl)cc(Cl)cc43)C2C(=O)N1c1cc(F)cc(Cl)c1 (stereo not shown) [Example 28] | ++ (NAUC “++” refers to an observed NAUC 170-140% of positive control) | +++ (NAUC “+++” refers to an observed NAUC >170% of positive control) |
| O=C1C2C3CCCN3C3(C(=O)Nc4c(Cl)cc(Cl)cc43)C2C(=O)N1c1cc(Cl)cc(Cl)n1 (single isomer, unassigned) [Example 3, 5,7-Dichloro-2′-(4,6-dichloropyridin-2-yl)-3a′,6′,7′,8′,8a′,8b′-hexahydro-1′H-spiro[indoline-3,4′-pyrrolo[3,4-a]pyrrolizine]-1′,2,3′(2′H)-trione] | +++ (NAUC “+++” refers to an observed NAUC >170% of positive control) | +++ (NAUC “+++” refers to an observed NAUC >170% of positive control) |
| O=C1C2C3C[C@H](O)CN3C3(C(=O)Nc4c(Cl)cc(Cl)cc43)C2C(=O)N1c1cc(C(F)(F)F)cc(C(F)(F)F)c1 (single isomer, unassigned) [Example 62] | ++ (NAUC “++” refers to an observed NAUC 170-140% of positive control) | ++ (NAUC “++” refers to an observed NAUC 170-140% of positive control) |
| [2H]C12C(=O)N(c3cc(Cl)cc(Cl)c3)C(=O)C1([2H])C1(C(=O)Nc3c(Cl)cc(Cl)cc31)N1C[C@@H](O)CC12 (stereo partly shown) [Example 64] | + (NAUC “+” refers to an observed NAUC <140% of positive control) | ++ (NAUC “++” refers to an observed NAUC 170-140% of positive control) |
| Cc1cnc(CC2NC3(C(=O)Nc4c(Cl)cc(Cl)cc43)C3C(=O)N(c4cc(Cl)cc(Cl)c4)C(=O)C23)cn1 (stereo not shown) [Example 252] | ++ (NAUC “++” refers to an observed NAUC 170-140% of positive control) | ++ (NAUC “++” refers to an observed NAUC 170-140% of positive control) |
| COc1cc(Cl)cc(N2C(=O)C3C4CC(=C(F)F)CN4C4(C(=O)Nc5c(Cl)cc(Cl)cc54)C3C2=O)c1 (single isomer, unassigned) [Example 138] | +++ (NAUC “+++” refers to an observed NAUC >170% of positive control) | + (NAUC “+” refers to an observed NAUC <140% of positive control) |
| O=C1C2C3CCCN3C3(C(=O)Nc4c(Cl)cccc43)C2C(=O)N1c1cc(Cl)cc(Cl)c1 (stereo not shown) [Example 75] | ++ (NAUC “++” refers to an observed NAUC 170-140% of positive control) | + (NAUC “+” refers to an observed NAUC <140% of positive control) |
| COc1cc(Cl)cc(N2C(=O)C3C4CC(C(F)F)CN4C4(C(=O)Nc5c(Cl)cc(Cl)cc54)C3C2=O)c1 (stereo not shown) [Example 130] | + (NAUC “+” refers to an observed NAUC <140% of positive control) | ++ (NAUC “++” refers to an observed NAUC 170-140% of positive control) |
| COc1ccc2c(c1)NC(=O)C21C2C(=O)N(c3cc(Cl)cc(Cl)c3)C(=O)C2C2CCCN21 (stereo not shown) [Example 98] | +++ (NAUC “+++” refers to an observed NAUC >170% of positive control) | +++ (NAUC “+++” refers to an observed NAUC >170% of positive control) |
| CC1CC2C3C(=O)N(c4cc(Cl)cc(Cl)c4)C(=O)C3C3(C(=O)Nc4c(Cl)cc(Cl)cc43)N2C1 (stereo not shown) [Example 71] | + (NAUC “+” refers to an observed NAUC <140% of positive control) | +++ (NAUC “+++” refers to an observed NAUC >170% of positive control) |
| COc1cc(Cl)cc(N2C(=O)C3C4CCCN4C4(C(=O)Nc5c(Cl)cc(Cl)cc54)C3C2=O)c1 (single isomer, unassigned) [Example 104] | + (NAUC “+” refers to an observed NAUC <140% of positive control) | ++ (NAUC “++” refers to an observed NAUC 170-140% of positive control) |
| O=C1C2C3CCCN3C3(C(=O)Nc4c(Br)cc(Br)cc43)C2C(=O)N1c1cc(Cl)cc(Cl)c1 (stereo not shown) [Example 34] | +++ (NAUC “+++” refers to an observed NAUC >170% of positive control) | +++ (NAUC “+++” refers to an observed NAUC >170% of positive control) |
